From PubChem BioAssay AID1259407 (Chemical Carcinogenesis Research Information System (CCRIS), 2018)
Active and inactive are the calls of the source. How the calls were made is not given here.

Tested on: CCRIS mutagenicity, Ames/micronucleus/aberration tests
Experiment: CCRIS mutagenicity studies
[1] = Test System: AMES SALMONELLA TYPHIMURIUM, Strain/Indicator: TA98, Metabolic Activation: NONE, Method: STANDARD PLATE
[2] = Test System: AMES SALMONELLA TYPHIMURIUM, Strain/Indicator: TA98, Metabolic Activation: RAT, LIVER, S-9, AROCLOR 1254, Method: STANDARD PLATE
[3] = Test System: AMES SALMONELLA TYPHIMURIUM, Strain/Indicator: TA100, Metabolic Activation: NONE, Method: STANDARD PLATE
[4] = Test System: AMES SALMONELLA TYPHIMURIUM, Strain/Indicator: TA100, Metabolic Activation: RAT, LIVER, S-9, AROCLOR 1254, Method: STANDARD PLATE
[5] = Test System: AMES SALMONELLA TYPHIMURIUM, Strain/Indicator: TA1535, Metabolic Activation: NONE, Method: STANDARD PLATE
[6] = Test System: AMES SALMONELLA TYPHIMURIUM, Strain/Indicator: TA1535, Metabolic Activation: RAT, LIVER, S-9, AROCLOR 1254, Method: STANDARD PLATE
[7] = Test System: AMES SALMONELLA TYPHIMURIUM, Strain/Indicator: TA1537, Metabolic Activation: NONE, Method: STANDARD PLATE
[8] = Test System: AMES SALMONELLA TYPHIMURIUM, Strain/Indicator: TA1537, Metabolic Activation: RAT, LIVER, S-9, AROCLOR 1254, Method: STANDARD PLATE
[9] = Test System: AMES SALMONELLA TYPHIMURIUM, Strain/Indicator: TA100, Metabolic Activation: NONE, Method: PREINCUBATION
[10] = Test System: AMES SALMONELLA TYPHIMURIUM, Strain/Indicator: TA98, Metabolic Activation: NONE, Method: PREINCUBATION

In the case of `O=S(=O)(Nc1ccc(Cl)c(Cl)c1)c1cccc2cccnc12`, the mutagenic call [1] is reported as “inactive; negative”, the mutagenic call [2] is reported as “inactive; negative” and the mutagenic call [3] is reported as “inactive; negative”. For the same compound, the mutagenic call [4] was “inactive; negative”, the mutagenic call [5] was “inactive; negative” and the mutagenic call [6] was “inactive; negative”. The mutagenic call [7] was “inactive; negative” and the mutagenic call [8] was “inactive; negative”.

For `Nc1ccn(/C=C/C=O)c(=O)n1`, the mutagenic call (Test System: AMES SALMONELLA TYPHIMURIUM, Strain/Indicator: HISD3052, Metabolic Activation: NONE, Method: STANDARD PLATE) was “active; positive”.

`CC(C)NCC(O)c1ccc(NS(C)(=O)=O)cc1` (stereo not given) was tested, and the mutagenic call (Test System: AMES SALMONELLA TYPHIMURIUM, Strain/Indicator: TA98, Metabolic Activation: NONE) was “inactive; negative”, the mutagenic call (Test System: AMES SALMONELLA TYPHIMURIUM, Strain/Indicator: TA98, Metabolic Activation: RAT, LIVER, S-9, AROCLOR 1254) was “inactive; negative” and the mutagenic call (Test System: AMES SALMONELLA TYPHIMURIUM, Strain/Indicator: TA100, Metabolic Activation: NONE) was “inactive; negative”. For the same compound, the mutagenic call (Test System: AMES SALMONELLA TYPHIMURIUM, Strain/Indicator: TA100, Metabolic Activation: RAT, LIVER, S-9, AROCLOR 1254) was “inactive; negative”, the mutagenic call (Test System: AMES SALMONELLA TYPHIMURIUM, Strain/Indicator: TA1535, Metabolic Activation: NONE) was “inactive; negative” and the mutagenic call (Test System: AMES SALMONELLA TYPHIMURIUM, Strain/Indicator: TA1535, Metabolic Activation: RAT, LIVER, S-9, AROCLOR 1254) was “inactive; negative”. The mutagenic call (Test System: AMES SALMONELLA TYPHIMURIUM, Strain/Indicator: TA1537, Metabolic Activation: NONE) was “inactive; negative”, the mutagenic call (Test System: AMES SALMONELLA TYPHIMURIUM, Strain/Indicator: TA1537, Metabolic Activation: RAT, LIVER, S-9, AROCLOR 1254) was “inactive; negative” and the mutagenic call (Test System: UDS HUMAN HEPATOCYTES, Strain/Indicator: THY INCORP, Metabolic Activation: NONE, Method: AUTORADIOGRAPHY) was “inactive; negative”. The mutagenic call (Test System: UDS RAT HEPATOCYTES, Strain/Indicator: THY INCORP, Metabolic Activation: NONE, Method: AUTORADIOGRAPHY) was “inactive; negative”.

With `CC1(C)S[C@@H]2[C@H](NC(=O)Cc3ccccc3)C(=O)N2[C@H]1C(=O)O` the mutagenic call [1] was “inactive; negative”, the mutagenic call [3] was “inactive; negative” and the mutagenic call [7] was “inactive; negative”. For the same compound, the mutagenic call (Test System: E. COLI, Strain/Indicator: WP2 (HCR), Metabolic Activation: NONE, Method: STANDARD PLATE) was “inactive; negative”.

For `c1ccc2c(c1)cc1c3c2ccc2cccc(c23)C2NC12` (stereo not given), the mutagenic call [1] was “active; positive”, the mutagenic call (Test System: AMES SALMONELLA TYPHIMURIUM, Strain/Indicator: TA100, Metabolic Activation: MICROSOMAL EPOXIDE HYDROLASE, Method: PREINCUBATION) was “active; positive” and the mutagenic call [9] was “active; positive”. For the same compound, the mutagenic call [3] was “active; positive”, the mutagenic call (Test System: CHINESE HAMSTER V-79, Strain/Indicator: V-79/6-THIOGUANINE, Metabolic Activation: NONE, Method: REPLATING) was “active; positive” and the mutagenic call (Test System: CHINESE HAMSTER V-79, Strain/Indicator: V-79/6-THIOGUANINE, Metabolic Activation: NONE, Method: STANDARD PLATE) was “active; positive”. The mutagenic call (Test System: E. COLI, Strain/Indicator: WP2UVRA, Metabolic Activation: NONE, Method: STANDARD PLATE) was “active; positive”.

For `Oc1cc2c3ccccc3ccc2c2ccccc12`, the mutagenic call [1] was “inactive; negative”, the mutagenic call [2] was “inactive; negative” and the mutagenic call [3] was “inactive; negative”.

`O=C(O)[C@H]1OC(Oc2cccc3c2cc2ccc4cccc5ccc3c2c45)[C@H](O)[C@@H](O)[C@@H]1O` (stereo not given in full) was tested, and the mutagenic call [10] was “inactive; negative” and the mutagenic call (Test System: AMES SALMONELLA TYPHIMURIUM, Strain/Indicator: TA98, Metabolic Activation: RAT, LUNG, S-9, Method: PREINCUBATION) was “inactive; negative”.

In the case of `CN(C)C1Cc2cccc3cccc(c23)C1`, the mutagenic call (Test System: AMES SALMONELLA TYPHIMURIUM, Strain/Indicator: TA97, Metabolic Activation: NONE, Method: STANDARD PLATE) is reported as “inactive; negative”, the mutagenic call (Test System: AMES SALMONELLA TYPHIMURIUM, Strain/Indicator: TA97, Metabolic Activation: RAT, LIVER, S-9, AROCLOR 1254, Method: STANDARD PLATE) is reported as “inactive; negative” and the mutagenic call [1] is reported as “inactive; negative”. For the same compound, the mutagenic call [2] was “active; positive”, the mutagenic call [3] was “inactive; negative” and the mutagenic call [4] was “inactive; negative”. The mutagenic call (Test System: AMES SALMONELLA TYPHIMURIUM, Strain/Indicator: TA102, Metabolic Activation: NONE, Method: STANDARD PLATE) was “inactive; negative”, the mutagenic call (Test System: AMES SALMONELLA TYPHIMURIUM, Strain/Indicator: TA102, Metabolic Activation: RAT, LIVER, S-9, AROCLOR 1254, Method: STANDARD PLATE) was “inactive; negative” and the mutagenic call [5] was “inactive; negative”. The mutagenic call [6] was “inactive; negative”.

`O=C(c1ccc(F)cc1)[C@@H]1O[C@@H]1c1ccccc1` was tested, and the mutagenic call [1] was “inactive; negative”, the mutagenic call [2] was “inactive; negative” and the mutagenic call [3] was “active; positive”. For the same compound, the mutagenic call [4] was “inactive; negative”.

In the case of `O=c1oc2cccc3ccc4cccc1c4c32`, the mutagenic call [10] is reported as “inactive; negative”, the mutagenic call (Test System: AMES SALMONELLA TYPHIMURIUM, Strain/Indicator: TA98, Metabolic Activation: RAT, LIVER, S-9, AROCLOR 1254, Method: PREINCUBATION) is reported as “inactive; negative” and the mutagenic call [9] is reported as “inactive; negative”. For the same compound, the mutagenic call (Test System: AMES SALMONELLA TYPHIMURIUM, Strain/Indicator: TA100, Metabolic Activation: RAT, LIVER, S-9, AROCLOR 1254, Method: PREINCUBATION) was “inactive; negative”.

`Clc1ccc(C(Cl)(Cl)Cl)cc1Cl` was tested, and the mutagenic call (Test System: AMES SALMONELLA TYPHIMURIUM, Strain/Indicator: TA98, Metabolic Activation: HAMSTER, LIVER, S-9, AROCLOR 1254 (30%), Method: PREINCUBATION) was “active; positive”, the mutagenic call [10] was “inactive; negative” and the mutagenic call (Test System: AMES SALMONELLA TYPHIMURIUM, Strain/Indicator: TA98, Metabolic Activation: RAT, LIVER, S-9, AROCLOR 1254 (30%), Method: PREINCUBATION) was “active; positive”. For the same compound, the mutagenic call (Test System: AMES SALMONELLA TYPHIMURIUM, Strain/Indicator: TA100, Metabolic Activation: HAMSTER, LIVER, S-9, AROCLOR 1254 (30%), Method: PREINCUBATION) was “active; positive”, the mutagenic call [9] was “inactive; negative” and the mutagenic call (Test System: AMES SALMONELLA TYPHIMURIUM, Strain/Indicator: TA100, Metabolic Activation: RAT, LIVER, S-9, AROCLOR 1254 (30%), Method: PREINCUBATION) was “active; positive”.

`C1=C\CC/C=C\CC/1.Nc1ccccc1.[Cl-].[Rh]` was tested, and the mutagenic call (Test System: AMES SALMONELLA TYPHIMURIUM, Strain/Indicator: TA2410, Metabolic Activation: NONE, Method: STANDARD PLATE) was “inactive; negative”.

With `O=[N+]([O-])C1=Cc2c3ccc4ccccc4c3cc3cccc1c23` the mutagenic call [1] was “active; positive”, the mutagenic call [2] was “active; positive” and the mutagenic call [3] was “inactive; negative”. For the same compound, the mutagenic call [4] was “inactive; negative”, the mutagenic call [5] was “inactive; negative” and the mutagenic call [6] was “inactive; negative”. For the same compound, the mutagenic call [7] was “active; positive”, the mutagenic call [8] was “active; positive” and the mutagenic call (Test System: AMES SALMONELLA TYPHIMURIUM, Strain/Indicator: TA1538, Metabolic Activation: NONE, Method: STANDARD PLATE) was “active; positive”. For the same compound, the mutagenic call (Test System: AMES SALMONELLA TYPHIMURIUM, Strain/Indicator: TA1538, Metabolic Activation: RAT, LIVER, S-9, AROCLOR 1254, Method: STANDARD PLATE) was “inactive; negative”.

In the case of `CC(C)OC(=O)C=Cc1ccc([N+](=O)[O-])o1`, the mutagenic call [10] is reported as “active; positive”.

With `O=C(/C=C/c1ccc(Oc2ccccc2)cc1)c1ccccc1` the mutagenic call [1] was “inactive; negative”, the mutagenic call [2] was “inactive; negative” and the mutagenic call [3] was “inactive; negative”. For the same compound, the mutagenic call [4] was “inactive; negative”.
